Consider 41 molecules from patent US7960393B2, “Pyrimidine derivatives useful for the treatment of diseases mediated by CRTH2” (Actimis Pharmaceuticals, Inc., priority 2002, dated 2011).

The target of series [1] is T1, human CRTH2 (Homo sapiens, UniProt Q9Y5Y4).
T1 construct: expressed in transfected cells; host or cells: L1.2 cells, pEAK expression vector, puromycin-selected
T1 sequence (Q9Y5Y4 1-395): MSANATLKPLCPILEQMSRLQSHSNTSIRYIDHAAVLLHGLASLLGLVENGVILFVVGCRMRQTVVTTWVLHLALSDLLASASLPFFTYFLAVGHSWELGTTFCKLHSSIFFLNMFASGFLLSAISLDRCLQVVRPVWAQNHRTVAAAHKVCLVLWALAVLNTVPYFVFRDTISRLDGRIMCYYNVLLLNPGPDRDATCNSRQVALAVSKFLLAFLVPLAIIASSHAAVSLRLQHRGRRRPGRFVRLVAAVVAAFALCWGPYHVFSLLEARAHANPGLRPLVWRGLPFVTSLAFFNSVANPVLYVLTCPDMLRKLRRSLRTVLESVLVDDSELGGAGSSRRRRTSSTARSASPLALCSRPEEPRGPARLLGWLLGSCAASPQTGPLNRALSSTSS
Put plainly: Measurement of Ca2+ mobilization in the human CRTH2-transfected L1.2 cell line (Assay 1). The series is classed as cell-based. The following applies: PGD2-induced Ca2+ mobilization in CRTH2-transfected L1.2 cells; compounds as yielded by solid phase synthesis, purity about 40 to 90%; read-out: Activity class. The procedure: Human CRTH2 cDNA was amplified from human eosinophil cDNA with gene specific primers containing restriction sites for cloning into pEAK vector (Edge Bio Systems). The human CRTH2 cDNA was cloned into the mammalian expression vector pEAK. This expression plasmid (40 μg) was transfected into L1.2 cells, at a cell density of 1×10^7 cells/500 μl, by using electroporation apparatus (Gene Pulser II, BioRad) at 250V/1,000 μF. One day after the transfection, puromycin (1 μg/ml, Sigma) was added into the cell culture plates. Two weeks after the transfection, grown cells were picked up for further growth.
[Measurement of Ca^2+ Mobilization in the Human CRTH2-Transfected L1.2 Cell Line] (Assay 1)
Ca^2+ loading buffer was prepared by mixing 5 μl of Fluo-3AM (2 mM in DMSO, final 1 μM, Molecular Probes) and 10 μl of pluronic F-127 (Molecular Probes) and diluting the resulting mixture in 10 ml of Ca^2+ assay buffer (20 mM HEPES pH 7.6, 0.1% BSA, 1 mM probenecid, Hanks' solution). The CRTH2 transfected cells which were prepared in Example 1 were washed with PBS, resuspended in Ca^2+ loading buffer at 1×10^7 cells/ml, and incubated for 60 min at room temperature. After incubation, cells were washed and resuspended in Ca^2+ assay buffer, then dispensed into transparent-bottom 96-well plates (#3631, Costar) at 2×10^5 cells/well. Cells were incubated with various concentrations of test compound for 5 minutes at room temperature. The emitted 480 nm fluorescence was measured on FDSS6000, a Ca^2+-measurement apparatus (Hamamatsu Photonics, Hamamatsu, Japan).
Assay results in Assay 1 are shown in Examples and tables of the Examples below. The data corresponds to the compounds as yielded by solid phase synthesis and thus to levels of purity of about 40 to 90%. For practical reasons, the compounds are grouped in four classes of activity as follows: IC50=A(< or =)10 nM<B(< or =)100 nM<C(< or =)500 nM<D

Consider `CN(C)c1nc(Cc2ccc(NC(=O)c3ccc(Cl)c(Cl)c3)cc2)nc(Cl)c1CC(=O)O` [Example 1-34], for which the melting point was over 168 °C. Further, in series [1], the IC50 was under 10 nM.

On to `CN(C)c1nc(Cc2ccc(NC(=O)c3ccc(Cl)cc3)cc2)nc(Cl)c1CC(=O)O` [Example 1-35], for which the melting point is over 166 °C. Also, in series [1], the IC50 is under 10 nM.

The molecule `COc1ccc(C(=O)Nc2ccc(Cc3nc(Cl)c(CC(=O)O)c(N(C)C)n3)cc2)cc1` [Example 1-36] had a melting point of over 130 °C. The IC50 in series [1] was under 10 nM.

Consider `CN(C)c1ccc(C(=O)Nc2ccc(Cc3nc(Cl)c(CC(=O)O)c(N(C)C)n3)cc2)cc1` [Example 1-37], for which the melting point is over 111 °C. In addition, the IC50 in series [1] was under 10 nM.

Turning to `COc1ccc(C(=O)Nc2ccc(Cc3nc(Cl)c(CC(=O)O)c(N(C)C)n3)cc2)cc1OC` [Example 1-38], the melting point is over 95 °C. Besides, in series [1], the IC50 fell in the range of 10 to 100 nM.

In the case of `CN(C)c1nc(Cc2ccc(NC(=O)c3ccc(C(F)(F)F)cc3)cc2)nc(Cl)c1CC(=O)O` [Example 1-39], the melting point was over 150 °C. Also, the IC50 in series [1] was under 10 nM.

On to `CN(C)c1nc(Cc2ccc(NC(=O)/C=C/c3ccc(Cl)cc3)cc2)nc(Cl)c1CC(=O)O` [Example 1-41], for which the melting point was 117 °C. Moreover, the IC50 in series [1] is under 10 nM.

In turn, `CN(C)c1nc(Cc2ccc(NC(=O)c3ccc(Br)cc3)cc2)nc(Cl)c1CC(=O)O` [Example 1-42] showed a melting point of 100 °C. Besides, in series [1], the IC50 is under 10 nM.

Turning to `CN(C)c1nc(Cc2ccc(NC(=O)c3cccc(Cl)c3Cl)cc2)nc(Cl)c1CC(=O)O` [Example 1-43], the melting point was 101 °C. Also, the IC50 in series [1] lay in the range of 100 to 500 nM.

`CN(C)c1nc(Cc2ccc(NC(=O)c3cc(Cl)ccc3Cl)cc2)nc(Cl)c1CC(=O)O` [Example 1-44] had a melting point of 96 °C. In addition, the IC50 in series [1] was under 10 nM.

The molecule `CN(C)c1nc(Cc2ccc(NC(=O)c3ccc(F)c(F)c3)cc2)nc(Cl)c1CC(=O)O` [Example 1-45] registered a melting point of over 94 °C. The IC50 in series [1] is under 10 nM.

`CN(C)c1nc(Cc2ccc(NC(=O)c3cc(Cl)cc(Cl)c3)cc2)nc(Cl)c1CC(=O)O` [Example 1-46] showed a melting point of over 99 °C. In series [1], the IC50 is under 10 nM.

As to `CN(C)c1nc(Cc2ccc(NC(=O)c3cccc(Cl)c3)cc2)nc(Cl)c1CC(=O)O` [Example 1-47], the melting point is over 108 °C. Also, in series [1], the IC50 was under 10 nM.

Take `COc1cccc(C(=O)Nc2ccc(Cc3nc(Cl)c(CC(=O)O)c(N(C)C)n3)cc2)c1` [Example 1-48]: the melting point was over 75 °C. The IC50 in series [1] is under 10 nM.

With `CN(C)c1nc(Cc2cccc(NC(=O)c3ccc4ccccc4c3)c2)nc(Cl)c1CC(=O)O` [Example 1-49], the melting point was 186 °C. Also, the IC50 in series [1] fell in the range of 10 to 100 nM.

`CN(C)c1nc(Cc2ccccc2NC(=O)c2ccc3ccccc3c2)nc(Cl)c1CC(=O)O` [Example 1-50] showed a melting point of 295 °C. In series [1], the IC50 was over 500 nM.

On to `CN(C)c1nc(Cc2ccc(NC(=O)C3CCC(C(C)(C)C)CC3)cc2)nc(Cl)c1CC(=O)O` (stereo not shown) [Example 1-51], for which the melting point was 104 °C. In addition, the IC50 in series [1] is under 10 nM.

On to `N=C(N)Nc1ccc(C(=O)Nc2ccc(Cc3nc(Cl)c(CC(=O)O)c(N4CCCC4)n3)cc2)cc1` [Example 1-52], for which the melting point was determined as 176 °C. Further, the IC50 in series [1] was over 500 nM.

For the molecule `O=C(O)Cc1c(Cl)nc(Cc2ccc(NC(=O)c3ccc([N+](=O)[O-])cc3)cc2)nc1N1CCCC1` [Example 1-53], the melting point was 134 °C. Also, the IC50 in series [1] was 10 to 100 nM.

Consider `CC(=O)Nc1ccc(C(=O)Nc2ccc(Cc3nc(Cl)c(CC(=O)O)c(N4CCCC4)n3)cc2)cc1` [Example 1-54], for which the melting point was 189 °C. In series [1], the IC50 lay within 10 to 100 nM.

`O=C(O)Cc1c(Cl)nc(Cc2ccc(NC(=O)c3ccc(Oc4ccccc4)cc3)cc2)nc1N1CCCC1` [Example 1-55] registered a melting point of 160 °C. Also, in series [1], the IC50 is under 10 nM.

The molecule `CC(C)Oc1ccc(C(=O)Nc2ccc(Cc3nc(Cl)c(CC(=O)O)c(N4CCCC4)n3)cc2)cc1` [Example 1-56] yielded a melting point of 156 °C. The IC50 in series [1] was under 10 nM.

Take `O=C(O)Cc1c(Cl)nc(Cc2ccc(NC(=O)c3ccc(-n4cccc4)cc3)cc2)nc1N1CCCC1` [Example 1-57]: the melting point is 217 °C. Moreover, in series [1], the IC50 is under 10 nM.

`COc1ccc(C(=O)Nc2ccc(Cc3nc(Cl)c(CC(=O)O)c(N4CCCC4)n3)cc2)cc1[N+](=O)[O-]` [Example 1-58]: the melting point was 118 °C. In addition, the IC50 in series [1] is under 10 nM.

The molecule `COc1c(C)cc(C(=O)Nc2ccc(Cc3nc(Cl)c(CC(=O)O)c(N4CCCC4)n3)cc2)cc1C` [Example 1-59] displayed a melting point of 115 °C. The IC50 in series [1] was under 10 nM.

The molecule `O=C(O)Cc1c(Cl)nc(Cc2ccc(NC(=O)/C=C/c3ccccc3)cc2)nc1N1CCCC1` [Example 1-60] came in with a melting point of 120 °C. For the same molecule, the IC50 in series [1] was under 10 nM.

`O=C(O)Cc1c(Cl)nc(Cc2ccc(NC(=O)c3ccc(Cl)c(Cl)c3)cc2)nc1N1CCCC1` [Example 1-61] showed a melting point of 129 °C. In addition, the IC50 in series [1] is under 10 nM.

The molecule `CN(CC(=O)NC1CCCC1)c1nc(Cc2ccc(NC(=O)c3ccc4ccccc4c3)cc2)nc(Cl)c1CC(=O)O` [Example 1-62] yielded a melting point of over 176 °C. Further, the IC50 in series [1] is under 10 nM.

Regarding `O=C(O)Cc1c(Cl)nc(Cc2ccc(NC(=O)c3ccc(Cl)cc3)cc2)nc1N1CCCC1` [Example 1-63], the melting point was determined as 173 °C. For the same molecule, in series [1], the IC50 was under 10 nM.

In turn, `O=C(O)Cc1c(Cl)nc(Cc2ccc(NC(=O)c3ccc(C(F)(F)F)cc3)cc2)nc1N1CCCC1` [Example 1-64] returned a melting point of 162 °C. The IC50 in series [1] is under 10 nM.

Consider `O=C(O)Cc1c(Cl)nc(Cc2ccc(NC(=O)/C=C/c3ccc(Cl)cc3)cc2)nc1N1CCCC1` [Example 1-65], for which the melting point was in the range of 188 to 190 °C. Moreover, in series [1], the IC50 was under 10 nM.

Consider `CN(CCO)c1nc(Cc2ccc(NC(=O)c3ccc4ccccc4c3)cc2)nc(Cl)c1CC(=O)O` [Example 1-66], for which the melting point is 140 °C. The IC50 in series [1] was under 10 nM.

Regarding `CN(C)c1nc(Cc2ccc(NC(=O)[C@@H]3CCc4ccccc4O3)cc2)nc(Cl)c1CC(=O)O` [Example 1-67], the melting point is over 120 °C. In series [1], the IC50 is under 10 nM.

Molecule `CN(C)c1nc(Cc2ccc(NC(=O)/C=C/c3ccc(C(F)(F)F)cc3)cc2)nc(Cl)c1CC(=O)O` [Example 1-68] had a melting point of over 199 °C. Further, the IC50 in series [1] is under 10 nM.

Regarding `COc1ccc(C(=O)Nc2ccc(Cc3ncc(CC(=O)O)c(N(C)C)n3)cc2)cc1` [Example 2-7], the melting point worked out at 111 °C. Also, the IC50 in series [1] was under 10 nM.

Take `CN(C)c1nc(Cc2ccc(NC(=O)c3ccc(Cl)c(Cl)c3)cc2)ncc1CC(=O)O` [Example 2-8]: the melting point is 140 °C. The IC50 in series [1] is under 10 nM.

In turn, `CN(C)c1nc(Cc2ccc(NC(=O)c3ccc4ccccc4n3)cc2)ncc1CC(=O)O` [Example 2-9] came in with a melting point of 136 to 144 °C. Further, the IC50 in series [1] is 10 to 100 nM.

For `CN(C)c1nc(Cc2ccc(NC(=O)/C=C/c3ccccc3)cc2)ncc1CC(=O)O` [Example 2-10], the melting point fell in the range of 135 to 140 °C. Further, the IC50 in series [1] was under 10 nM.

For `CN(C)c1nc(Cc2ccc(NC(=O)/C=C/c3ccc(Cl)cc3)cc2)ncc1CC(=O)O` [Example 2-11], the melting point lay in the range of 136 to 140 °C. In addition, the IC50 in series [1] was under 10 nM.

`COc1ccc(C(=O)Nc2ccc(Cc3ncc(CC(=O)O)c(N(C)C)n3)cc2)cc1OC` [Example 2-12] showed a melting point of 106 to 110 °C. The IC50 in series [1] lay in the range of 100 to 500 nM.

For `CN(C)c1nc(Cc2ccc(NC(=O)c3ccc(C(F)(F)F)cc3)cc2)ncc1CC(=O)O` [Example 2-13], the melting point fell in the range of 149 to 153 °C. In series [1], the IC50 was under 10 nM.
